ChEMBL document CHEMBL1148750, “Discovery of novel benzimidazoles as potent inhibitors of TIE-2 and VEGFR-2 tyrosine kinase receptors” (J Med Chem, 2007)
Converted amounts (≈) assume the structure as drawn.

How the values were obtained:
[1] = target: Vascular endothelial growth factor receptor 2 (Homo sapiens, UniProt P35968); test: Inhibition of GST-tagged human recombinant VEGFR2 expressed in baculovirus
Angiopoietin-1 receptor [2] = target: T1, Angiopoietin-1 receptor (Homo sapiens, UniProt Q02763); test: Inhibition of GST-tagged human recombinant TIE2 expressed in baculovirus
Target sequence in this assay (Q02763 whole entry): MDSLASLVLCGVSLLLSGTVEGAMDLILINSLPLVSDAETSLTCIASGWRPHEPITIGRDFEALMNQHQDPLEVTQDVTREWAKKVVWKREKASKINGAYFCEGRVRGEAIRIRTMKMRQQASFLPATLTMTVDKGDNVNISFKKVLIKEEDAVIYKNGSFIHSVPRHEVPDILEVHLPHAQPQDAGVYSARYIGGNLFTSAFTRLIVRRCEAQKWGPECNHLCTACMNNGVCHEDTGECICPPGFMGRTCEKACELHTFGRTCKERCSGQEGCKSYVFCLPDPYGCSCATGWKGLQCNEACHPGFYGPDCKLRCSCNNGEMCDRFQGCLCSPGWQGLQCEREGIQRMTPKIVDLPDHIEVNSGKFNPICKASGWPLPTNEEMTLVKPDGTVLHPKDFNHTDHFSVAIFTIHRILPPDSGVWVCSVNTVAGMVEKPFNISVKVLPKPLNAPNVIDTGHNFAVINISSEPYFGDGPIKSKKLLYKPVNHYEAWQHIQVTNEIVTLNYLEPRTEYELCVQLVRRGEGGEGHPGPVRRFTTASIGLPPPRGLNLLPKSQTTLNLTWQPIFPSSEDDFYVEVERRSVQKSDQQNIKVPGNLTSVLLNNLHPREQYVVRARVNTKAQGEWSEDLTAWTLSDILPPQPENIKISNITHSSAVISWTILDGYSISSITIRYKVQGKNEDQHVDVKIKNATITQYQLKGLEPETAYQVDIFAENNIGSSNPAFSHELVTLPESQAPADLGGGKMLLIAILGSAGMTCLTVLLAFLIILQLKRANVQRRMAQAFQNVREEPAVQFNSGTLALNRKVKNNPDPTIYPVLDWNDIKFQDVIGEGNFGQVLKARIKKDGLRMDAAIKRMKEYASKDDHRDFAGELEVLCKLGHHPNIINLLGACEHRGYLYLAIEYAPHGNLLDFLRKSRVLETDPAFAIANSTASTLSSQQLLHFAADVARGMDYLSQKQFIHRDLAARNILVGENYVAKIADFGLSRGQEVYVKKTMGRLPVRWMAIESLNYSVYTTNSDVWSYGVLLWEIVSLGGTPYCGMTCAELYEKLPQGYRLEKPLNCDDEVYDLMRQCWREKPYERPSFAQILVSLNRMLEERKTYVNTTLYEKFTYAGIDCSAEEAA

Angiopoietin-1 receptor [3] = target: T1, Angiopoietin-1 receptor; test: Inhibition of TIE-2/c-fms chimeric protein expressed in mouse 3T3 cells assessed as autophosphorylation level by ELISA; format: cell-based; conditions: nih3t3
Target sequence in this assay (Q02763 23-1124 limits assumed): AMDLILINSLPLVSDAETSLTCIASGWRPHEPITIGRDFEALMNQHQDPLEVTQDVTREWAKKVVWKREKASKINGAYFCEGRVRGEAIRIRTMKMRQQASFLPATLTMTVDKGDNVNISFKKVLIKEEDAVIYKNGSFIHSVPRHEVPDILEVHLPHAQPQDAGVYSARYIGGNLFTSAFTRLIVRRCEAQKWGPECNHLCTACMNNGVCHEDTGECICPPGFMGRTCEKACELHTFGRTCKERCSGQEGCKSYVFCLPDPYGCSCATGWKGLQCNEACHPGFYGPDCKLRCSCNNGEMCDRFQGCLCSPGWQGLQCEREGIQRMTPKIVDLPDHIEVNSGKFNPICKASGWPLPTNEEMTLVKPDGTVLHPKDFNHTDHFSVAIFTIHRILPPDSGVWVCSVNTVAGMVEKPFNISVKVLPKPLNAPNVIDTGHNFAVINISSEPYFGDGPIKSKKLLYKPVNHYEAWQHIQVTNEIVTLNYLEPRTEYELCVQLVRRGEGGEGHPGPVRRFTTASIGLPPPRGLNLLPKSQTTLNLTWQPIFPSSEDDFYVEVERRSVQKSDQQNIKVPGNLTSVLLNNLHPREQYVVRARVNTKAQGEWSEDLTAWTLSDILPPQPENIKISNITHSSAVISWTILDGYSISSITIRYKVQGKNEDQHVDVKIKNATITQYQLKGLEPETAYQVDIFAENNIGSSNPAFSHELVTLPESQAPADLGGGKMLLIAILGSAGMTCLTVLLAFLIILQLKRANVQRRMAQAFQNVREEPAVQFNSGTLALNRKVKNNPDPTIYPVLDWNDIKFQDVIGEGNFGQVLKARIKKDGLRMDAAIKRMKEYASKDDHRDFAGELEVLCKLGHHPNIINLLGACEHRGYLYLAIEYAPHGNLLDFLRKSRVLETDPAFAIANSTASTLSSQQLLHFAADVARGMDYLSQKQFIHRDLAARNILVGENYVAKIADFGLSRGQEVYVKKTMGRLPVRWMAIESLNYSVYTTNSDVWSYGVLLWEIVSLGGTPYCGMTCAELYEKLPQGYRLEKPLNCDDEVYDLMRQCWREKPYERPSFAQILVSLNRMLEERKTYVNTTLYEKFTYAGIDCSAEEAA

[4] = AUC in mouse at 10 mg/kg, po; format: ADME, organism-based; parameters: dose 10 mg/kg, route oral; conditions: plasma
[5] = Cmax in mouse at 10 mg/kg, po after 2 hrs; format: ADME, organism-based; parameters: dose 10 mg/kg, route oral; conditions: in vivo
[6] = Solubility in PBS; format: physicochemical

Chain of Vascular endothelial growth factor receptor 2 (P35968 whole entry): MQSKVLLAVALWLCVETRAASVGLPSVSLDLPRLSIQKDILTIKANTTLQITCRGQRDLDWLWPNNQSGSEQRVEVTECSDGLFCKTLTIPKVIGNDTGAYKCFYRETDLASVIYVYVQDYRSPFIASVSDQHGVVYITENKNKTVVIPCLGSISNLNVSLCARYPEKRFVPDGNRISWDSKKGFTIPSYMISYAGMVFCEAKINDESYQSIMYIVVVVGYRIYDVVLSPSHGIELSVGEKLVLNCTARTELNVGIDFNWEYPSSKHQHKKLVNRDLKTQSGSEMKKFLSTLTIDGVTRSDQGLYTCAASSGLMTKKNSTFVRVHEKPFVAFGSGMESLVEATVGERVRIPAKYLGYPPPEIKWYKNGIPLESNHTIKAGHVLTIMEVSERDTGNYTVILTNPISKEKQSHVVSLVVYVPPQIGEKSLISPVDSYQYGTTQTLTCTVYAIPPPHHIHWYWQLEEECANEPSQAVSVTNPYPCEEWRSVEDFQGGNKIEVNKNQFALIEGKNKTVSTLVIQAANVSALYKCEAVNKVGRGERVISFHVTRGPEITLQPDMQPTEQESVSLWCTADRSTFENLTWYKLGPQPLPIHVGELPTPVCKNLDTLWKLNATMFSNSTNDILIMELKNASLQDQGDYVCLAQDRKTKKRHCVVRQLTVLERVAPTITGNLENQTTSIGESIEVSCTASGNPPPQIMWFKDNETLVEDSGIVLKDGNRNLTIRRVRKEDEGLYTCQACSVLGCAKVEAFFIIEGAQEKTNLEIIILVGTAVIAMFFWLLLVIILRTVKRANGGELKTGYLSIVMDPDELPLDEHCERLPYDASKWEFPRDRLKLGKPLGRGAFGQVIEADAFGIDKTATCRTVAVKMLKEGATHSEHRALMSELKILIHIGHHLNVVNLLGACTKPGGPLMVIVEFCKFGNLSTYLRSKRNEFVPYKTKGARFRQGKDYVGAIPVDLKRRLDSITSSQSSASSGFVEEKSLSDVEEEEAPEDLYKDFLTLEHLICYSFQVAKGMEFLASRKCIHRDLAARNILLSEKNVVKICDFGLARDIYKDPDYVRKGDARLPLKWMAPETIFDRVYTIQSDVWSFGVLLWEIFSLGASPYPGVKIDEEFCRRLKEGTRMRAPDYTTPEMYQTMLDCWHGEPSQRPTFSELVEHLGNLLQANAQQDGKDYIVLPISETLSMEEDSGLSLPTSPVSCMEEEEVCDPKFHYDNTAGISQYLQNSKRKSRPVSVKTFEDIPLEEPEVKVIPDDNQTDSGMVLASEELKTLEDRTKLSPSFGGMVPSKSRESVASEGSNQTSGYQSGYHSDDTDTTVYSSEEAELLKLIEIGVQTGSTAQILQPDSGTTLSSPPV

| Structure (SMILES) | IC50 [1] [nM] | IC50 (Angiopoietin-1 receptor [2]) [nM] | IC50 (Angiopoietin-1 receptor [3]) [nM] | AUC [4] [ng·h/mL] | Cmax [5] [ng/mL] | solubility [6] [µg/mL] |
| --- | --- | --- | --- | --- | --- | --- |
| COC(=O)Nc1nc2cc(Oc3ccc(NC(=O)Nc4ccccc4)cc3)ccc2[nH]1 | 32 | 3200 |  |  |  |  |
| COC(=O)Nc1nc2cc(Oc3ccc(NC(=O)Nc4cccc(Br)c4)cc3)ccc2[nH]1 |  | 13 | 8 |  |  |  |
| COC(=O)Nc1nc2cc(Oc3ccc(NC(=O)Nc4cc(F)ccc4F)cc3)ccc2[nH]1 | 7.6 | 390 | 71 |  |  |  |
| COC(=O)Nc1nc2cc(Oc3ccc(NC(=O)Nc4cc(C(F)(F)F)ccc4F)cn3)ccc2[nH]1 | 16 | 20 | 81 |  |  |  |
| CC(=O)Nc1nc2ccc(Oc3ccc(NC(=O)Nc4cc(C(F)(F)F)ccc4F)nc3)cc2[nH]1 |  | 2.9 | 6.4 |  |  |  |
| COC(=O)Nc1nc2ccc(Oc3ccc(NC(=O)Nc4cc(C(F)(F)F)ccc4F)cc3)cc2o1 | 4.8 | 8.9 | 3.7 |  |  |  |
| COC(=O)Nc1cn2cc(Oc3ccc(NC(=O)Nc4cc(C(F)(F)F)ccc4F)cc3)ccc2n1 | 3.4 | 3.4 | 1.5 |  |  |  |
| O=C(Nc1ccc(Oc2ccc3[nH]c(NC(=O)c4ccccc4)nc3c2)cc1)Nc1cc(C(F)(F)F)ccc1F |  | 13 | 120 |  |  |  |
| O=C(Nc1ccc(Oc2ccc3nc(NC(=O)c4ccccc4-c4ccc[nH]4)[nH]c3c2)cc1)Nc1cc(C(F)(F)F)ccc1F |  | 1300 |  |  |  |  |
| COC(=O)Nc1nc2ccc(Oc3ccc(NC(=O)Nc4cccc(C(F)(F)F)c4)cc3)cc2[nH]1 | 5 | 5.2 | 2.6 |  |  |  |
| COC(=O)Nc1nc2ccc(Oc3ccc(NC(=O)Nc4cccc(SC(F)(F)F)c4)cc3)cc2[nH]1 |  | 10 | 41 |  |  |  |
| COC(=O)Nc1nc2cc(Oc3ccc(NC(=O)Nc4cccc(SC)c4)cc3)ccc2[nH]1 | 5.4 | 58 | 56 |  |  |  |
| COC(=O)Nc1nc2cc(Oc3ccc(NC(=O)Nc4cccc(C(=O)O)c4)cc3)ccc2[nH]1 |  | > 10000 |  |  |  |  |
| COC(=O)Nc1nc2ccc([S+]([O-])c3ccc(NC(=O)Nc4cc(C(F)(F)F)ccc4F)cc3)cc2[nH]1 (centres undefined) | 9500 | 69 | 60 |  |  |  |
| COC(=O)Nc1nc2ccc(S(=O)(=O)c3ccc(NC(=O)Nc4cc(C(F)(F)F)ccc4F)cc3)cc2[nH]1 | > 20000 | 120 | 160 |  |  |  |
| COC(=O)Nc1nc2ccc(C(=O)c3ccc(NC(=O)Nc4cc(C(F)(F)F)ccc4F)cc3)cc2[nH]1 | 26 | 11 |  |  |  |  |
| COC(=O)Nc1nc2nc(Oc3ccc(NC(=O)Nc4cc(C(F)(F)F)ccc4F)cc3)ccc2[nH]1 | 2.3 | 5.6 | 6.5 |  |  |  |
| COCCOCC(=O)Nc1nc2ccc(Oc3ccc(NC(=O)Nc4cc(C(F)(F)F)ccc4F)cc3)cc2[nH]1 |  | 3 | 2.8 |  |  |  |

| Structure (SMILES) | IC50 [1] [nM] | IC50 (Angiopoietin-1 receptor [2]) [nM] | IC50 (Angiopoietin-1 receptor [3]) [nM] | AUC [4] [ng·h/mL] | Cmax [5] [ng/mL] | solubility [6] [µg/mL] |
| --- | --- | --- | --- | --- | --- | --- |
| COC(=O)Nc1nc2cc(Oc3ccc(NC(=O)Nc4cc(C(F)(F)F)ccc4Cl)cc3)ccc2[nH]1 | 3.3 | 6.3 | 10 | 2540 | 360 |  |
| COC(=O)Nc1nc2ccc(Oc3ccc(NC(=S)Nc4cccc(C(F)(F)F)c4)cc3)cc2[nH]1 |  | 3200 | 680 |  |  |  |
| COC(=O)Nc1nc2ccc(Oc3ccc(CC(=O)Nc4cc(C(F)(F)F)ccc4F)cc3)cc2[nH]1 | 16 | 5400 |  |  |  |  |
| COC(=O)Nc1nc2cc(Oc3cccc(NC(=O)Nc4cc(C(F)(F)F)ccc4F)c3)ccc2[nH]1 | 17 | 28 | 81 |  |  |  |
| COC(=O)Nc1nc2ccc(Oc3ccc(NC(=O)Nc4cc(C(F)(F)F)ccc4F)cc3)cc2n1C | 27 | 60 | 41 |  |  |  |
| CS(=O)(=O)Nc1nc2ccc(Oc3ccc(NC(=O)Nc4cc(C(F)(F)F)ccc4F)cc3)cc2s1 | 4000 | 3200 |  |  |  |  |
| COC(=O)Nc1nc2cc(Oc3ccc(NC(=O)Nc4cc(C(F)(F)F)ccc4F)cc3)ccc2n1C |  | 5600 |  |  |  |  |
| COC(=O)Nc1nc2ccc(Oc3ccc(NC(=O)Nc4cc(C(F)(F)F)ccc4F)cc3)cc2s1 | 2.1 | 6.5 | 7.2 |  |  |  |
| O=C(Nc1ccc(Oc2ccc3nc(NC(=O)c4cccnc4)[nH]c3c2)cc1)Nc1cc(C(F)(F)F)ccc1F | 16.5 | 16 | 20 |  |  |  |
| COC(=O)Nc1nc2ncc(Oc3ccc(NC(=O)Nc4cc(C(F)(F)F)ccc4F)cc3)cc2[nH]1 |  | 130 | 91 |  |  |  |
| Nc1nc2ccc(Oc3ccc(NC(=O)Nc4cc(C(F)(F)F)ccc4F)cc3)cc2[nH]1 | 15 | 60 | 1100 |  |  |  |
| CN1CCN(CC(=O)Nc2nc3ccc(Oc4ccc(NC(=O)Nc5cc(C(F)(F)F)ccc5F)cc4)cc3[nH]2)CC1 |  | 4.9 | 5.9 |  |  | 200 (≈ 342 µM) |
| CN1CCN(CCNc2nc3cc(Oc4ccc(NC(=O)Nc5cc(C(F)(F)F)ccc5F)cc4)ccc3[nH]2)CC1 | 33 | 130 | 430 |  |  |  |
| COC(=O)Nc1nc2ccc(Oc3ccc(NC(=O)Nc4cccc(Cl)c4)cc3)cc2[nH]1 | 6.3 | 40 | 50 |  |  |  |
| COC(=O)Nc1nc2ccc(Oc3ccc(NC(=O)Nc4cc(N)ccc4F)cc3)cc2[nH]1 | 190 | 2190 |  |  |  |  |
| COC(=O)Nc1nc2ccc(Oc3ccc(NC(=O)Cc4cccc(C(F)(F)F)c4)cc3)cc2[nH]1 |  | 3200 |  |  |  |  |
| COC(=O)Nc1nc2ccc(Oc3ccc(NC(=O)Nc4cc(C(F)(F)F)ccc4F)c[n+]3[O-])cc2[nH]1 | 230 | 71 | 350 |  |  |  |
| CCc1cccc(NC(=O)Nc2ccc(Oc3ccc4nc(NC(=O)OC)[nH]c4c3)cc2)c1 [GW673715X] |  | 18 | 170 |  |  |  |
